In US6521593B1, “Methods for inhibiting brain tumor growth” (Childrens Hospital Los Angeles, priority 1999, dated 2003):

Tests used:
U87MG cells = experiment: Heterotopic (subcutaneous) tumor model, U87MG cells in nude mice
Description: Subcutaneous tumor growth: For subcutaneous tumor growth, the cells (10^6 mouse) were injected s.c. below the right shoulder pad immediately following intracerebral injection.
To further investigate this finding, we simultaneously injected the DAOY and U87MG cells intracranially and subcutaneously before initiating treatment with the peptides as outlined under the orthotopic model.

U87 glioblastoma cells = experiment: Tumor cell adhesion to ECM proteins (FIG. 7), U87; type: cell-based, human; conditions: U87 on vitronectin and tenascin, 20 μg/ml, 8-hour incubation
Description: (§1) Non tissue culture dishes were incubated 1 hour at 37° C. with vitronectin, tenascin, fibronectin or collagen I (10 μg/ml), then washed with PBS. After the wash, 5×10^5 cells /well were plated and incubated for 16 hours at 37° C. The cultures were then washed and an adhesion buffer containing 20 μg/ml of pentapeptide or control peptide were added and incubated for an additional 2-24 hours. The cultures were then washed twice with adhesion buffer and stained with Crystal violet and the OD 600 determined. The more adherent cells are present, the higher the OD. Data represent adherent cells after 8-hour incubation. U87=glioblastoma and DAOY=medulloblastoma.

primary HBEC = experiment: Apoptosis on vitronectin (Annexin V-FITC FACS), HBEC; type: cell-based, human; conditions: 20 μg/ml, 4 hrs
Description: Apoptosis: Adhesion conditions were as above, except that 12 well plates covered with vitronectin and 5×10^5 cells/well were plated in adhesion buffer. […] Attached cells were trypsinized and combined with the detached cells in the supernatant and then examined for the presence of apoptotic cells using the Apo Alert Annexin V-FITC apoptosis kit (Clontech).
FIGS. 6a-6d show the integrin profile (a), effect of αv-antagonist on adhesion to (b), migration on (c) and cell viability on vitronectin (d) for brain tumor and brain capillary endothelial cells. Both DAOY and U87MG tumor cells and brain capillary cells express the integrins αvβ3 and αvβ5 (a). […] Cell viability was tested by letting the cells attach to vitronectin for 1 hour, and then exposing them for 4 hours to the control peptide or αv-antagonist (20 μg/ml) (d). Adherent and floating cells were combined and examined by FACS for apoptosis, using FITC labeled anti-annexin V and propidium iodide.
We have previously shown that pre-incubation of brain tumor or capillary cells with the cRGD peptide, or the combination of anti-αvβ3 and anti-αvβ5 antibodies, prevents cell adhesion to vitronectin. […] Attached cells were combined after trypsinization with floating cells and the number of apoptotic cells was determined by FACS, using anti-annexin V-FITC antibody and propidium iodide (Clontech Apo alert Annexin V-FITC detection apoptosis kit).

[1] = system: U87MG human brain tumor cells; experiment: CAM assay: angiogenesis and growth of U87MG tumors on chick chorioallantoic membrane; type: in vivo; conditions: 100 μg into a CAM vein, 6 days
Description: CAM assay: Egg supplier and preparation have been described earlier (23). Tumor cells were plated in 50 μl PBS at 4×10^6 cells/egg for DAOY and 3.5×10^6 cells/egg for U87MG. Cells were grown to tumors for 7 days, then harvested under sterile conditions, trimmed to similar sizes and […] onto the CAM of 10-day-old embryos. […] Tumors were photographed in situ after 7 days of growth, then harvested, weighed and fixed in 4% buffered formalin and embedded in paraffin. After serial sectioning, slides were stained with hematoxilin and eosin.
To assess the effect of αv antagonism on brain tumor associated angiogenesis, DAOY and U87MG human brain tumor cells were grown on chick chorioallantoic membranes (CAMs). The tumors were allowed to grow for 7 days before they were removed and reimplanted onto fresh CAMs. 24 hours after transfer, 100 μg of either the active cRGD peptide or control peptide (cRAD) was injected into a CAM vein. Tumors were grown for an additional 6 days and then weighed and analyzed for vascularization. […] In contrast to control tumors, which increased 80% in weight, αv-antagonist treated tumors decreased 30% in weight (FIG. 1b).
FIGS. 1a and 1b show the inhibition of angiogenesis (a) and tumor growth on the CAM (b) by an αv-antagonist. Brain tumors grown on CAMs were harvested and cut to similar sizes and placed on fresh CAMs of 10-day-old chicken eggs. The following day, 100 μg of active αv-inhibitor or control peptide were injected into the chicken veins and grown for another 6 days. […] Tumors placed on the CAM were weighed at the beginning and end of the experiment (b). The weight of the tumors treated with the control peptide increased by 80% for both tumor types (left, n=8), whereas it decreased by about 30% when the active peptide was administered (right, n=8).

[2] = system: M21L αv neg melanoma cells; experiment: Survival of nude mice with αv-negative melanoma cells implanted into the brain; type: in vivo; conditions: 10^6 cells into forebrain of nude mice
From the text: Mice were sacrificed when becoming cachectic and the presence of tumor was verified by autopsy.

DAOY cells = experiment: Vitronectin adhesion, DAOY; type: cell-based, human; conditions: test substance 20 μg/ml
Description: Adhesion: Assay conditions were as previously described (15). Non-tissue culture treated wells incubated overnight at 4° C. with vitronectin (1-10 μg/ml PBS), washed and blocked for 30 min. with heat denatured 1% BSA in PBS, followed by washing with PBS. Control and test cells, pre-incubated at 37° C. with the test substance (20 μg/ml) in adhesion buffer for 30 min. were plated into wells (5×10^4 cells/well) and incubated for 1 hr at 37° C. After gentle washing of the wells with adhesion buffer, adhering cells were fixed and stained with crystal violet, the dye solubilized in methanol and the OD determined at […].
To determine if αvβ3 and αvβ5 regulate DAOY, U87MG and HBEC adhesion to vitronecin, the cells were plated in vitronectin-coated wells and allowed to adhere in the presence or absence of either blocking antibodies to αvβ3 (LM-609) and αvβ5 (P1-F6) or the cRGD peptide.

[3] = system: DAOY medulloblastoma cells; experiment: Apoptosis of cells grown on ECM (FIG. 8), DAOY; type: cell-based, human; conditions: 20 μg/ml, 24 hours
Description: as §1
Test conditions were as in FIG. 7, except that detached cells and adherent cells were combined after trypsinisation. The cells were then washed, suspended in 50 μl PBS and centrifuged in glass cover slides (cytospin). After fixation with 4% paraformaldehyde, the cells were stained for apoptosis using the Boehringer Apoptosis Kit. Results are expressed in a percentage of apoptotic cells versus total number of cells. Experiment was done after 24 hours of incubation with the peptides.

CC(C)[C@H]1C(=O)N[C@@H](CCCN=C(N)N)C(=O)NCC(=O)N[C@@H](CC(=O)O)C(=O)N[C@H](Cc2ccccc2)C(=O)N1C [EMD 121974, cyclo(Arg-Gly-Asp-D-Phe-[N-Me]-Val)]
time to sacrifice necessitated by progressive growth of subcutaneous tumors (U87MG cells; U87MG injected intracranially and subcutaneously): 10 weeks
inhibition of subcutaneous tumor growth (U87MG cells; U87MG s.c. only, 100 μg/mouse daily i.p. from day 3, after 6 weeks): no inhibition of tumor growth
Tumor size (mm) Subcutis (U87MG cells; U87MG s.c., 100 μg/mouse daily i.p.): 19 ± 0.77 mm
adhesion to ECM (adherent cells, OD 600) (U87 glioblastoma cells): detached from vitronectin and tenascin
apoptosis after attachment to vitronectin (primary HBEC): significant apoptosis
tumor-associated angiogenesis (stereomicroscope) [1]: significant suppression of angiogenesis
decrease of tumor weight ([1]; n=8, listed as active peptide): about 30%
decrease of tumor weight ([1]; n=8, listed as αv-antagonist): 30%
Survival ([2]; 100 μg/mouse/day from day 3): 15.7 ± 3.8 days
Survival ([2]; 100 μg/mouse/day from day 3, listed as active pentapeptide): 15 days
adhesion to vitronectin (DAOY cells): Significant inhibition
cell survival / apoptotic cells ([3]; DAOY grown on collagen I or fibronectin): did not alter the survival
cell survival / apoptotic cells ([3]; DAOY grown on vitronectin or tenascin): increased number of dead cells
